Experimental data from patent US7053100B2, “Therapeutic nucleosides” (priority 1991, dated 2006).
Several values for one entry are separate records, joined by “and”; a condition that tells them apart may be missing. Identical values can stand only once.

System: Hepatitis B Virus (HBV) in human HBV producer cell line of HepG2, 2.2.15
Details: 100 μM compound, 2.2.15 cells
Description: Antiviral Activity Against Hepatitis B Virus (HBV)
The human HBV producer cell line of HepG2, 2.2.15, described and characterized by Sells et al., PNAS 84:1005, 1987 and J. Virol. […] This cell line was utilized in vitro to identify compounds with anti-HBV activity.
Supernatant media containing extracellular virion DNA (Dane particles) were harvested on days three, six and ten, treated with proteinase K (1 mg/mL) and sodium dodecyl sulfate (1%), and incubated at 50° C. for one hour. DNA was extracted with equal volumes of phenol followed by chloroform and then precipitated by ammonium acetate and propanol. The DNA precipitate was dissolved and collected on nitrocellulose using the procedure of Schleicher and Schuell (S & S, 10 Optical Ave., Keene, N.H. 03431, Publication No. 700, 1987), and treated as described by Southern, J. Mol. Biol. 98:503, 1975. Cells were harvested, and the intracellular DNA was obtained after cell lysis with guanidine isothiocyanate. The intracellular DNA was handled in the same manner as the extracellular DNA. After precipitation by ammonium acetate and propanol, the intracellular DNA precipitate was dissolved, cut by restriction endonuclease, Hind III, applied to agarose gel and then treated as described by Southern to determine the quantity of replicative intermediate forms.

[1] = analysis 24 hours following the 10th day of treatment, duplicate cultures, experiments A and B

Structure (SMILES): Nc1nc(=O)n([C@@H]2CS[C@H](CO)O2)cc1F (racemic) [cis-1-(2-(Hydroxymethyl)-1,3-oxathiolan-5-yl)-5-fluoro-cytosine]
- HBV DNA in Culture Medium, Day 0 (Day 0, zero = undetectable, sensitivity cutoff 0.1 pg/mL): 90 pg/mL
- HBV DNA in Culture Medium, Day 10 (Day 10, zero = undetectable, sensitivity cutoff 0.1 pg/mL): 0 pg/mL
- Intracellular HBV DNA, Monomer [1]: 0.8 pg/μg cell DNA and 0.7 pg/μg cell DNA
- Intracellular HBV DNA, Replicative intermediate [1]: 1 pg/μg cell DNA and 2 pg/μg cell DNA
